Measured values from patent US20070021501A1, “Methods of treating epileptogenesis” (priority 2005, published 2007).

Columns and labels:
[1] = test system: lithium-pilocarpine status epilepticus in the rat; test: Mortality induced by SE, lithium-pilocarpine model (Example 1); type: in vivo
Source text: The model induced in rats by pilocarpine associated with lithium (Li-Pilo) reproduces most of the clinical and neurophysiological features of human temporal lobe epilepsy (Turski et al., 1989, Synapse 3:154-171; Cavalheiro, 1995, Ital J Neurol Sci 16:33-37). In adult rats, the systemic administration of pilocarpine leads to status epilepticus (SE). The lethality rate reaches 30-50% during the first days. In the surviving animals, neuronal damage predominates within the hippocampal formation, the piriform and entorhinal cortices, thalamus, amygdaloid complex, neocortex and substantia nigra.
Male Wistar rats weighing 225-250 g, provided by Janvier Breeding Center (Le Genest-St-lste, France) were housed under controlled standard conditions (light/dark cycle, 7.00 a.m.-7.00 p.m. lights on), with food and water available ad libitum. All animal experimentation was performed in accordance with the rules of the European Communities Council Directive of Nov. 24, 1986 (86/609/EEC), and the French Department of Agriculture (License N^o 67-97). For electrode implantation, rats were anesthetized by an i.p. injection of 2.5 mg/kg diazepam (DZP, Valium, Roche, France) and […] ketamine chlorhydrate (Imalgene 1000, Rhone Merrieux, France). Four single-contact recording electrodes were placed on the skull, over the parietal cortex, two on each side.
(§1) The bilateral EEG cortical activity was recorded during the whole duration of SE and behavioral changes were noted.
(§2) The effects of increasing doses of the test compound were studied on 3 groups of rats. The animals of the first group received 10 mg/kg of the test compound, i.p., 1 h after the onset of SE (pilo-TC10) while the animals of groups 2 and 3 received 30 and 60 mg/kg of the test compound (pilo-TC30 and pilo-TC60), respectively.
(§3) The control group received saline instead of pilocarpine and the test compound (saline-saline). […] Pilo-DZP received a second injection of 1 mg/kg DZP on the day of SE at about 10 h after the first one. Thereafter, Pilo-DZP and saline-saline rats received twice daily an equivalent volume of saline.

[2] = test system: lithium-pilocarpine model of temporal lobe epilepsy in the rat; test: Latency to and frequency of spontaneous recurrent seizures (SRS), lithium-pilocarpine model (Example 1); type: in vivo
Protocol: as §1, §2
as §3, with “saline. […]” for “saline.”
To calculate the frequency of SRS in pilocarpine-exposed rats, the seizure severity and distinguished stage III (clonic seizures of facial muscles and anterior limbs) and stage IV-V seizures (rearing and falling) was considered. […] The frequency of more severe stage IV-V SRS was highest during the first week in most groups, except pilo-TC30 and TC60 with late seizure onset where the SRS frequency was constant over the whole 4 weeks in TC30 group and over the first two weeks in the pilo-TC60 group with late SRS onset in which no stage IV-V seizures where no seizures recorded after the second week.

Structure (SMILES)	mortality during the first 48 h after SE ([1]; DZP 2 mg/kg i.m. 1 h after onset of SE (5/22))	frequency of stage III SRS ([2]; TC 10 mg/kg, weeks 3 and 4)	occurrence of epilepsy ([2]; TC 60 mg/kg, one rat)	mortality during the first 48 h after SE ([1]; TC 10 mg/kg i.p. 1 h after onset of SE (6/23))	mortality during the first 48 h after SE ([1]; TC 30 mg/kg i.p. 1 h after onset of SE (5/25))	mortality during the first 48 h after SE ([1]; TC 60 mg/kg i.p. 1 h after onset of SE (1/23), p<0.01)
CN1C(=O)CN=C(c2ccccc2)c2cc(Cl)ccc21 [DZP, diazepam]	23%					
NC(=O)OC[C@@H](O)c1ccccc1Cl [TC]		significantly increased over pilo-DZP values	did not become epileptic in a delay of 9 months post-SE	26%	20%	4%
